Values quoted from earlier work, collected in patent US11311573B2, “Pharmaceutical preparations and methods to manage weight and to modulate the gut microbiota” (XENO BIOSCIENCES INC., priority 2016, dated 2022).

Conditions: rat, based on chronic oral hydrogen peroxide treatment

SMILES: O=C([O-])[O-].O=C([O-])[O-].OO.OO.OO.[Na+].[Na+].[Na+].[Na+] [sodium percarbonate, Sodium percarbonate]
- No-observable-adverse-effect-level (NOAEL): 81 to 115 mg/kg/day
